Test results as given in publication PMC9306949 (Clinical Pharmacology in Drug Development, 2022).
Entries after “also recorded” stand apart in the source; their conditions may differ. Where two headings read alike, the source gives them in different places. Marks after values point to notes of the source that are not given here.

What was measured:
[1] = type: in vivo, human; details: for M/P (AUC0‐t), metabolite-to-parent ratio / AUC0‐24 / AUC0‐inf / AUC0‐t / C24 / Cmax: mean (%CV); for t1/2 / AUC0‐24 / AUC0‐inf / AUC0‐t / C24 / Cmax / tmax: plasma; for t1/2: arithmetic mean (%CV); for tmax: median (min-max)
[2] = cited from earlier work
[3] = Urine excretion of navtemadlin and M1; type: in vivo, human
[4] = cited from earlier work; remark: listed apart in the source
[5] = Treatment A (reference): new tablet fasted, drug-load analysis
[6] = Treatment A (reference): new tablet fasted, food-effect analysis
[7] = Treatment B (test 1): new tablet fed, food-effect analysis
[8] = Treatment B: 60-mg new tablet, fed (high-fat meal)
[9] = Treatment C (test 2): old tablet fasted, drug-load analysis
[10] = Treatment C: 60-mg old tablet, fasted
[11] = Treatment A: 60-mg new tablet, fasted
[12] = test/reference: B (new tablet fed) vs A (new tablet fasted)
[13] = test/reference: C (old tablet fasted) vs A (new tablet fasted)
[14] = patients with solid tumors or multiple myeloma
[15] = period 1 (old tablet fasted), 0-48 h urine

Compound: CC(C)[C@@H](CS(=O)(=O)C(C)C)N1C(=O)[C@@](C)(CC(=O)O[C@@H]2O[C@H](C(=O)O)[C@@H](O)[C@H](O)[C@H]2O)C[C@H](c2cccc(Cl)c2)[C@H]1c1ccc(Cl)cc1 [M1, navtemadlin acyl glucuronide]
- tmax, median ([1]; Treatment A (reference): new tablet fasted, average of 2, drug-load analysis): 2.5 ^d h
- tmax, median ([1]; Treatment A (reference): new tablet fasted, average of 2, food-effect analysis): 2.5 ^d h
- AUC0‐24, GLSM [1, 5]: 528, N = 30 ng • h/mL
- AUC0‐inf, GLSM [1, 5]: 701, N = 28 ng • h/mL
- AUC0‐t, GLSM [1, 5]: 646, N = 30 ng • h/mL
- Cmax, GLSM [1, 5]: 98, N = 30 ng/mL
- AUC0‐24, GLSM [1, 6]: 528, N = 30 ng • h/mL
- AUC0‐inf, GLSM [1, 6]: 710, N = 28 ng • h/mL
- AUC0‐t, GLSM [1, 6]: 646, N = 30 ng • h/mL
- Cmax, GLSM [1, 6]: 98, N = 30 ng/mL
- exposure in UGT1A1*28 heterozygous poor metabolizers (6/7 TA repeats) vs WT (6/6 TA repeats) ([1]; Treatment A, n = 16 vs n = 12): generally comparable
- AUC0‐24, GLSM [1, 7]: 465, N = 30 ng • h/mL
- AUC0‐inf, GLSM [1, 7]: 610, N = 22 ng • h/mL
- AUC0‐t, GLSM [1, 7]: 555, N = 30 ng • h/mL
- Cmax, GLSM [1, 7]: 117, N = 30 ng/mL
- tmax, median [1, 7]: 3.0 ^d h
- M/P (AUC0‐t), metabolite-to-parent ratio [1, 8]: 0.2 (38.3); 30
- AUC0‐24, GLSM [1, 9]: 506, N = 30 ng • h/mL
- AUC0‐inf, GLSM [1, 9]: 643, N = 26 ng • h/mL
- AUC0‐t, GLSM [1, 9]: 585, N = 30 ng • h/mL
- Cmax, GLSM [1, 9]: 84, N = 30 ng/mL
- tmax, median [1, 9]: 2.0 ^d h
- M/P (AUC0‐t), metabolite-to-parent ratio [1, 10]: 0.2 (34.3); 30
- acyl glucuronide to parent drug AUC0‐t ratio ([1]; after correction for molecular weight, across study groups): ≈ 0.2
- time of second peak after dosing (enterohepatic recirculation) ([1]; all 3 treatments): around 10 hours
- PK in H. pylori–positive vs H. pylori–negative subjects ([1]; n = 12 positive vs n = 18 negative): not markedly affected
- decrease in extent of exposure (AUC0‐24, AUC0‐t, AUC0‐inf) with a high‐fat meal ([1]; new tablet fed vs fasted): 12% to 18%
- increase in Cmax with a high‐fat meal ([1]; new tablet fed vs fasted): ≈ 18%; also recorded: ≈ 20%
- difference in median tmax between fed and fasted conditions, significance ([1]; new tablet, Wilcoxon signed-rank, alpha level of 0.1): not significant
- t1/2 [1, 11]: 16.2 (57.8); 46 h
- AUC0‐24 [1, 11]: 607 (60.9); 60 ng • h/mL
- AUC0‐inf [1, 11]: 849 (74.1); 46 ng • h/mL
- AUC0‐t [1, 11]: 782 (72.2); 60 ng • h/mL
- C24 [1, 11]: 7.82 (97.4); 60 ng/mL
- Cmax [1, 11]: 118 (70.0); 60 ng/mL
- tmax [1, 11]: 2.02 (1.00 – 6.00); 60 h
- AUC0‐24 [1, 8]: 532 (56.0); 30 ng • h/mL
- AUC0‐inf [1, 8]: 824 (61.1); 22 ng • h/mL
- AUC0‐t [1, 8]: 666 (65.8); 30 ng • h/mL
- C24 [1, 8]: 5.96 (87.8); 30 ng/mL
- Cmax [1, 8]: 133 (52.6); 30 ng/mL
- tmax [1, 8]: 3.00 (0.99 ‐ 4.02); 30 h
- t1/2 [1, 10]: 13.7 (68.5); 26 h
- AUC0‐24 [1, 10]: 609 (68.6); 30 ng • h/mL
- AUC0‐inf [1, 10]: 794 (71.6); 26 ng • h/mL
- AUC0‐t [1, 10]: 740 (77.5); 30 ng • h/mL
- C24 [1, 10]: 7.04 (109.6); 30 ng/mL
- Cmax [1, 10]: 101 (65.3); 30 ng/mL
- tmax [1, 10]: 2.01 (1.00 – 6.00); 30 h
- tmax, difference of medians (90%CI) ([1]; test-reference: B (new tablet fed) minus A (new tablet fasted)): 0.4 (‐0.002‐0.8) ^e , ^g h
- tmax, difference of medians (90%CI) ([1]; test-reference: C (old tablet fasted) minus A (new tablet fasted)): 0.1 (–0.3 to 0.6) ^e , ^g h
- AUC0‐24, % ratio of least squares means (90%CI) [1, 12]: 88.2 (82.2‐94.6) %
- AUC0‐inf, % ratio of least squares means (90%CI) [1, 12]: 86.0 (77.5‐95.4) %
- AUC0‐t, % ratio of least squares means (90%CI) [1, 12]: 85.9 (79.9‐92.3) %
- Cmax, % ratio of least squares means (90%CI) [1, 12]: 118.7%
- AUC0‐24, % ratio of least squares means (90%CI) [1, 13]: 95.8 (89.4‐102.7) %
- AUC0‐inf, % ratio of least squares means (90%CI) [1, 13]: 91.8 (85.3 to 98.6) %
- AUC0‐t, % ratio of least squares means (90%CI) [1, 13]: 90.6 (84.2 to 97.6) %
- Cmax, % ratio of least squares means (90%CI) [1, 13]: 85.7 (77.9‐94.2) %
- mean accumulation ([2]; 7‐day once‐daily dosing period, patients): < 2 fold
- mean (SD) terminal half‐life (t1/2) [2, 14]: 14.0 (6.07) hours
- mean metabolite‐to‐parent 24‐hour AUC ratio [2, 14]: 0.461
- mean tmax [2, 14]: 2 to 4 h
- mean amount excreted in urine [3, 15]: 17.3 µg
- mean fraction of dose excreted in urine [3, 15]: 0.02%
- urine excretion ([3]; single 60-mg dose, healthy subjects): negligible
- share of excreted biliary radioactivity ([4]; rat bile): accounts for most of the excreted biliary radioactivity
- presence in feces ([4]; rat feces, hydrolysis in the intestine): not present in rat feces
